Paper PMC8148064 (Acta Pharmaceutica Sinica. B, 2020)

Biological target: adenylyl cyclase-associated protein 1 (CAP1) (Homo sapiens, UniProt Q01518)
Experiment: ITC with purified CAP1
Assay type: binding

Sequence of adenylyl cyclase-associated protein 1 (CAP1) (Q01518 2-475): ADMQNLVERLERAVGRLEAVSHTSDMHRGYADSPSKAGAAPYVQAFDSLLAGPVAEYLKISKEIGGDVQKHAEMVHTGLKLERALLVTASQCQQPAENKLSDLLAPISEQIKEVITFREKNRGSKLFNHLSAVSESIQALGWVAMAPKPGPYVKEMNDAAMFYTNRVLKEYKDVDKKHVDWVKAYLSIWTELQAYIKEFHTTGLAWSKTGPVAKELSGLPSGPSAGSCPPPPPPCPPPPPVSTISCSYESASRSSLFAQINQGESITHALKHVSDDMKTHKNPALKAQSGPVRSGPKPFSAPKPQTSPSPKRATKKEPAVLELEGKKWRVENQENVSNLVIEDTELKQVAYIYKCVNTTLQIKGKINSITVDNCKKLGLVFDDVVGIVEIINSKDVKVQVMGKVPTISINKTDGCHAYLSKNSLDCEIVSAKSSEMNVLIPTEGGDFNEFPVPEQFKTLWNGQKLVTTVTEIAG

CC1=C(O)C(=O)C=C2C1=CC=C1[C@@]2(C)CC[C@@]2(C)[C@@H]3C[C@](C)(C(=O)O)CC[C@]3(C)CC[C@]12C [celastrol]
Kd: 110 nM
